Test results reported in patent US12534469B2 (CHILDREN'S HOSPITAL MEDICAL CENTER, priority 2020, dated 2026).

Experiments:
Format in all cases: biochemical
[1] = molecular target: T1, IRAK4 (Homo sapiens, UniProt Q9NWZ3); assay: RBC HotSpot Kinase Assay, IRAK4; set-up: purchased Reaction Biology (RBC HotSpot Kinase Assay)
T1 sequence (Q9NWZ3 1-460): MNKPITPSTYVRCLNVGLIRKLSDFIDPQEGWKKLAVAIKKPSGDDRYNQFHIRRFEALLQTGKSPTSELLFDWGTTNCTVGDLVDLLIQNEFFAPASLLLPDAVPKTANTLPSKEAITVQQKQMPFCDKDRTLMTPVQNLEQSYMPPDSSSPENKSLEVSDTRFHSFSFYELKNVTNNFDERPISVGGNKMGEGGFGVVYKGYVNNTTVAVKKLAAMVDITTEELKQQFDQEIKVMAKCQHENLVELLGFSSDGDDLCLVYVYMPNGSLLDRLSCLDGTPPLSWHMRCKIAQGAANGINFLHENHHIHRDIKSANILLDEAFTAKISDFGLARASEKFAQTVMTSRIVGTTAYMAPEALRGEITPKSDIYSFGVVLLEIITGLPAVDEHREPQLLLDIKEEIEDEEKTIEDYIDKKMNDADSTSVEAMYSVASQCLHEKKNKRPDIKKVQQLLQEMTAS
Description: (§1) This assay uses the isolated kinase enzyme. This assay is very useful for determining competition of the inhibitor for ATP and/or substrates and for measuring the kinetics of enzyme inhibition. […] Unlike kinase binding assays that measure competition for ATP, the HotSpot Kinase Assay is a functional assay that measures catalytic activity; as such it measures relative functional potency regardless of the mechanism of enzyme inhibition. This assay uses the form of the various enzymes that are easiest to express, which may not necessarily be the form of the enzyme that exist in the cell. (Sometimes the carboxy terminus has been truncated to aid in expression, or, if it is a receptor kinase, the enzyme itself is isolated from the other parts of the receptor that are involved in regulating kinase activity.)
(§2) The reagent used was as follows: Base Reaction buffer; 20 mM Hepes (pH 7.5), 10 mM MgCl2, 1 mM EGTA, 0.01% Brij35, 0.02 mg/ml BSA, 0.1 mM Na3VO4, 2 mM DTT, 1% DMSO. Required cofactors were added individually to each kinase reaction.
(§3) The reaction procedure was as follows: • 1) Substrates were prepared in freshly prepared Reaction Buffer. • 2) Any required cofactors were delivered to the substrate solution above. • 3) Kinase was delivered into the substrate solution and gently mixed. • 4) Compounds were delivered in 100% DMSO into the kinase reaction mixture by Acoustic technology (Echo550; nanoliter range), followed by incubation for 20 min at room temp. • 5) ^33P-ATP was delivered into the reaction mixture to initiate the reaction. • 6) The mixture was incubated for 2 hours at room temperature. • 7) Kinase activity was detected by P81 filter-binding method.

[2] = molecular target: T2, FLT3 (Homo sapiens, UniProt P36888); assay: RBC HotSpot Kinase Assay, FLT3
T2 construct: purchased Reaction Biology (RBC HotSpot Kinase Assay)
T2 sequence (P36888 564-958 limits assumed): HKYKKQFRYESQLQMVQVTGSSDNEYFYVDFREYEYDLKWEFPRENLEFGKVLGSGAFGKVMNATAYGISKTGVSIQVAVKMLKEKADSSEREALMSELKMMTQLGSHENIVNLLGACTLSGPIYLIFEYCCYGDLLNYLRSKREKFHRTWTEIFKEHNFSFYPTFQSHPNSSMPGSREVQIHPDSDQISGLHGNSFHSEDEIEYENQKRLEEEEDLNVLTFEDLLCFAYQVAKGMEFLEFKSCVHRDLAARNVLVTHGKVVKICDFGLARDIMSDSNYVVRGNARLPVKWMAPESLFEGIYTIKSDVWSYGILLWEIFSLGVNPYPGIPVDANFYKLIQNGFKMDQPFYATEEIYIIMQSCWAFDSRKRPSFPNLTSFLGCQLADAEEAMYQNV
Description: as §1, §2, §3

[3] = molecular target: T3, IRAK1 (Homo sapiens, UniProt P51617); assay: RBC HotSpot Kinase Assay, IRAK1
T3 construct: purchased Reaction Biology (RBC HotSpot Kinase Assay)
T3 sequence (P51617 whole entry): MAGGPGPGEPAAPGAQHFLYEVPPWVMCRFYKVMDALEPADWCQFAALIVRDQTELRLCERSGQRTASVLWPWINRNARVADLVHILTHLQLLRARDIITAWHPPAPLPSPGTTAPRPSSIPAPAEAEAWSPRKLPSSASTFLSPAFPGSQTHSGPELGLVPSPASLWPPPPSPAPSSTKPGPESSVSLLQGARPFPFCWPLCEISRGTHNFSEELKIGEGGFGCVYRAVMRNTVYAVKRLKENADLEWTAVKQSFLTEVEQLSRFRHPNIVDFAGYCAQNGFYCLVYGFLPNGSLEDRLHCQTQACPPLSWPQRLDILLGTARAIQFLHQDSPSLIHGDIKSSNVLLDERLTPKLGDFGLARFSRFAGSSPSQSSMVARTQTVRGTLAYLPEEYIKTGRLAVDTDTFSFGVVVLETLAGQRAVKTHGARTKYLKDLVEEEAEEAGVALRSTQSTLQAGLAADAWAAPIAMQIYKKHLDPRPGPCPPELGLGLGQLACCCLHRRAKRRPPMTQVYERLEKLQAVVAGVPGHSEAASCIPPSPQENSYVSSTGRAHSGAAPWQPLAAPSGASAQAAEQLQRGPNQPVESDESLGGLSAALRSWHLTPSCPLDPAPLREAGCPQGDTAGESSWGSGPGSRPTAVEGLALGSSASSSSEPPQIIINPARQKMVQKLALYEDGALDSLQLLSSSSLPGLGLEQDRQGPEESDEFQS
Description: as §1, §2, §3

Row | SMILES | IC50 [1] | IC50 [2] | IC50 [3]
1 | FC(F)n1cc(-c2ccc3ncc(-c4cccc(NC5CNCC5(F)F)n4)n3n2)cn1 (stereo not drawn) [Compound 23, 6-(6-(1-(difluoromethyl)-1H-pyrazol-4-yl)imidazo[1,2-b]pyridazin-3-yl)-N-(4,4-difluoropyrrolidin-3-yl)pyridin-2-amine] | 75 nM | 16 nM | 1150 nM
2 | F[C@H]1CNC[C@@H]1Nc1cccc(-c2cnc3ccc(Oc4ccccc4)nn23)n1 [Compound 88, N-((3S,4S)-4-fluoropyrrolidin-3-yl)-6-(6-phenoxyimidazo[1,2-b]pyridazin-3-yl)pyridin-2-amine] | 959 nM | 22 nM | 7240 nM
3 | FC1(F)CNCC1Nc1cccc(-c2cnc3ccc(-c4cnn5ccccc45)nn23)n1 (stereo not drawn) [Compound 56, N-(4,4-difluoropyrrolidin-3-yl)-6-(6-(pyrazolo[1,5-a]pyridin-3-yl)imidazo[1,2-b]pyridazin-3-yl)pyridin-2-amine] | 1 nM | 0.8 nM | 80 nM
4 | F[C@H]1CNC[C@@H]1Nc1cccc(-c2cnc3ccc(NC4CCC4)nn23)n1 [Compound 91, N-cyclobutyl-3-(6-(((3S,4S)-4-fluoropyrrolidin-3-yl)amino)pyridin-2-yl)imidazo[1,2-b]pyridazin-6-amine] | 101 nM | 6 nM | 1640 nM
5 | CNc1ccc2ncc(-c3cccc(N[C@H]4CNC[C@@H]4F)n3)n2n1 [Compound 89, 3-(6-(((3S,4S)-4-fluoropyrrolidin-3-yl)amino)pyridin-2-yl)-N-methylimidazo[1,2-b]pyridazin-6-amine] | 58 nM | 5 nM | 8050 nM
6 | F[C@H]1CNC[C@@H]1Nc1cccc(-c2cnc3ccc(-c4cnn(C5CC5)c4)nn23)n1 [Compound 3, 6-(6-(1-cyclopropyl-1 H-pyrazol-4-yl)imidazo[1,2-b]pyridazin-3-yl)-N-((3S,4S)-4-fluoropyrrolidin-3-yl)pyridin-2-amine] | 71 nM | 1 nM | 449 nM
7 | Cn1cc(-c2ccc3ncc(-c4cccc(NC5CNCC5(F)F)n4)n3n2)cn1 (stereo not drawn) [Compound 21, N-(4,4-difluoropyrrolidin-3-yl)-6-(6-(1-methyl-1H-pyrazol-4-yl)imidazo[1,2-b]pyridazin-3-yl)pyridin-2-amine] | 38 nM | 6 nM | 497 nM
8 | c1cc(NC2CCNC2)nc(-c2cnc3ccc(-c4cnn(C5CCOCC5)c4)nn23)c1 (stereo not drawn) [Compound 29, N-(pyrrolidin-3-yl)-6-(6-(1-(tetrahydro-2H-pyran-4-yl)-1H-pyrazol-4-yl)imidazo[1,2-b]pyridazin-3-yl)pyridin-2-amine] | 2460 nM | 4 nM | 13000 nM
9 | F[C@H]1CNCC[C@@H]1Nc1cccc(-c2cnc3ccc(-c4cnn(C5CC5)c4)nn23)n1 [Compound 7, 6-(6-(1-cyclopropyl-1 H-pyrazol-4-yl)imidazo[1,2-b]pyridazin-3-yl)-N-((3S,4S)-3-fluoropiperidin-4-yl)pyridin-2-amine] | 52 nM | 4 nM | 284 nM
10 | c1cc(NC2CCC3(CNC3)C2)nc(-c2cnc3ccc(-c4cnn(C5CCOCC5)c4)nn23)c1 (stereo not drawn) [Compound 48, N-(6-(6-(1-(tetrahydro-2H-pyran-4-yl)-1H-pyrazol-4-yl)imidazo[1,2-b]pyridazin-3-yl)pyridin-2-yl)-2-azaspiro[3.4]octan-6-amine] | 4080 nM | 12 nM | > 10000 nM
11 | F[C@H]1CNC[C@@H]1Nc1cccc(-c2cnc3ccc(C(F)(F)F)nn23)n1 [Compound 79, N-((3S,4S)-4-fluoropyrrolidin-3-yl)-6-(6-(trifluoromethyl)imidazo[1,2-b]pyridazin-3-yl)pyridin-2-amine] | 21 nM | 3 nM | 4570 nM
12 | FC(F)n1cc(-c2ccc3ncc(-c4cccc(N[C@H]5CNC[C@@H]5C(F)(F)F)n4)n3n2)cn1 [Compound 12, 6-(6-(1-(difluoromethyl)-1 H-pyrazol-4-yl)imidazo[1,2-b]pyridazin-3-yl)-N-((3R,4S)-4-(trifluoromethyl)pyrrolidin-3-yl)pyridin-2-amine] | 128 nM | 3 nM | 2060 nM
13 | COc1ccc2ncc(-c3cccc(N[C@H]4CNC[C@@H]4F)n3)n2n1 [Compound 87, N-((3S,4S)-4-fluoropyrrolidin-3-yl)-6-(6-methoxyimidazo[1,2-b]pyridazin-3-yl)pyridin-2-amine] | 83 nM | 3 nM | 1650 nM
14 | CC(C)n1cc(-c2ccc3ncc(-c4cccc(NC5CCC6(CNC6)C5)n4)n3n2)cn1 (stereo not drawn) [Compound 46, N-(6-(6-(1-isopropyl-1H-pyrazol-4-yl)imidazo[1,2-b]pyridazin-3-yl)pyridin-2-yl)-2-azaspiro[3.4]octan-6-amine] | 985 nM | 6 nM | 2180 nM
15 | c1cc(NC2CC3(CCNC3)C2)nc(-c2cnc3ccc(-c4cnn(C5CNC5)c4)nn23)c1 (stereo not drawn) [Compound 44, N-(6-(6-(1-(azetidin-3-yl)-1H-pyrazol-4-yl)imidazo[1,2-b]pyridazin-3-yl)pyridin-2-yl)-6-azaspiro[3.4]octan-2-amine] | 4340 nM | 4 nM | > 10000 nM
16 | FC(F)c1ccc2ncc(-c3cccc(N[C@H]4CNC[C@@H]4F)n3)n2n1 [Compound 78, 6-(6-(difluoromethyl)imidazo[1,2-b]pyridazin-3-yl)-N-((3S,4S)-4-fluoropyrrolidin-3-yl)pyridin-2-amine] | 29 nM | 6 nM | 1860 nM
17 | FC1(F)CNCC1Nc1cccc(-c2cnc3ccc(-c4cnn(C5CC5)c4)nn23)n1 (stereo not drawn) [Compound 22, 6-(6-(1-cyclopropyl-1H-pyrazol-4-yl)imidazo[1,2-b]pyridazin-3-yl)-N-(4,4-difluoropyrrolidin-3-yl)pyridin-2-amine] | 44 nM | 6 nM | 678 nM
18 | c1cc(NC2CC3(CCNC3)C2)nc(-c2cnc3ccc(-c4cnn5ccccc45)nn23)c1 (stereo not drawn) [Compound 62, N-(6-(6-(pyrazolo[1,5-a]pyridin-3-yl)imidazo[1,2-b]pyridazin-3-yl)pyridin-2-yl)-6-azaspiro[3.4]octan-2-amine] | 16 nM | < 0.5 nM | 403 nM
19 | Cc1oncc1-c1ccc2ncc(-c3cccc(NC4CC5(CNC5)C4)n3)n2n1 [Compound 36, N-(6-(6-(5-methylisoxazol-4-yl)imidazo[1,2-b]pyridazin-3-yl)pyridin-2-yl)-2-azaspiro[3.3]heptan-6-amine] | 2700 nM | 5 nM | 3780 nM
20 | O[C@H]1CNC[C@@H]1Nc1cccc(-c2cnc3ccc(C4CC4)nn23)n1 [Compound 70, (3S,4S)-4-((6-(6-cyclopropylimidazo[1,2-b]pyridazin-3-yl)pyridin-2-yl)amino)pyrrolidin-3-ol] | 586 nM | 18 nM | 5190 nM
21 | F[C@H]1CNC[C@@H]1Nc1cccc(-c2cnc3ccc(N4CCOCC4)nn23)n1 [Compound 95, N-((3S,4S)-4-fluoropyrrolidin-3-yl)-6-(6-morpholinoimidazo[1,2-b]pyridazin-3-yl)pyridin-2-amine] | 24 nM | 4 nM | 1180 nM
22 | CC(C)(C)c1ccc2ncc(-c3cccc(N[C@H]4CNC[C@@H]4F)n3)n2n1 [Compound 80, 6-(6-(tert-butyl)imidazo[1,2-b]pyridazin-3-yl)-N-((3S,4S)-4-fluoropyrrolidin-3-yl)pyridin-2-amine] | 231 nM | 11 nM | 3420 nM
